ChEMBL document CHEMBL4390646, “A fragment-based approach towards the discovery of N-substituted tropinones as inhibitors of Mycobacterium tuberculosis transcriptional regulator EthR2” (Eur J Med Chem, 2019)
The source made the active and inactive calls. The rule behind the calls is not given here.

How the values were obtained:
[1] = system: Mycobacterium tuberculosis; assay: Binding affinity to recombinant Mycobacterium tuberculosis EthR2 assessed as change in melting temperature at 20 uM by SYPRO Orange dye based fluorescence thermal shift assay
[2] = Inhibition of recombinant Mycobacterium tuberculosis EthR2 expressed in golden hamster BHK21 cells assessed as reduction in EthR2 and DNA interaction measured after 48 hrs by p-nitrophenyl phosphate based SEAP reporter gene assay; format: cell-based
[3] = system: Mycobacterium tuberculosis; assay: Binding affinity to recombinant Mycobacterium tuberculosis EthR2 assessed as change in melting temperature at 1 mM by Nano Orange dye based fluorescence thermal shift assay
[4] = system: Mycobacterium tuberculosis; assay: Inhibition of EthR2 in Mycobacterium tuberculosis assessed as potentiation of ETH bioactivation up to 30 uM using 0.1 ug/ml ETH
[5] = target: HTH-type transcriptional regulator EthR (Mycobacterium tuberculosis) (UniProt P9WMC1); assay: Binding affinity to Mycobacterium tuberculosis EthR at 30 uM by mammalian reporter assay
HTH-type transcriptional regulator EthR (Mycobacterium tuberculosis), sequence (P9WMC1 whole entry): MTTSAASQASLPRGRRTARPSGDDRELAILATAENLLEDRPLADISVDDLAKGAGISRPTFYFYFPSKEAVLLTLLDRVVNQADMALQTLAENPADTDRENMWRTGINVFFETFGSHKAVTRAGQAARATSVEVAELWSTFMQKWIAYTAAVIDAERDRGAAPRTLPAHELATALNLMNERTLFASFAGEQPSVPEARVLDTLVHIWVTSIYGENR

| Compound | ΔTm [1] [°C] | pIC50 [2] | ΔTm [3] [°C] | Activity [4] | Activity [5] |
| --- | --- | --- | --- | --- | --- |
| COC1(OC)CC2CCC(C1)N2CCc1ccc(Cl)cc1 | 0.2 | < 4.8 |  |  |  |
| CCCNC(=O)Nc1cccc(C)n1 |  | < 4 | 2.2 |  |  |
| O=C1CC2CCCC(C1)N2CCc1ccc(Cl)cc1 | 0.6 | 5.8 |  | inactive |  |
| Clc1ccc(CCN2C3CCC2CC2(C3)OCCO2)cc1 | 0.1 | < 4.8 |  |  |  |
| O=C1CC2CCC(C1)N2CCc1ccc(Cl)cc1Cl | 0.2 | 5.7 |  |  |  |
| O=C1CC2CCC(C1)N2CCc1ccccc1C(F)(F)F | 0.3 |  |  |  |  |
| O=C1CC2CCC(C1)N2CCc1ccc(Br)cc1 | 1 | 6.1 |  | inactive |  |
| O=C1CC2CCC(C1)N2C(=O)Cc1ccc(Cl)cc1 | -0.1 |  |  |  |  |
| FC(F)=C1CC2CCC(C1)N2CCc1ccc(Cl)cc1 | 0.6 | < 4.8 |  |  |  |
| N=C(N)Nc1nc2ccccc2s1 |  | < 4 | 2.8 |  |  |
| CC(C)Sc1nc2[nH]cnc(N)c-2n1 |  | 5.1 | 2.5 |  |  |
| O=C1CC2CCC(C1)N2CCc1cccc(C(F)(F)F)c1 | -0.1 |  |  |  |  |
| O=C1CC2CCC(C1)N2CCc1ccc(F)cc1 | 0.4 | 5.6 |  | inactive |  |
| O=C1C2CCC1CN(CCc1ccc(Cl)cc1)C2 | 0.1 |  |  |  |  |
| O=C1CC2CCC(C1)N2CCc1ccccc1 | 0.1 | 5 |  | inactive |  |
| Cc1ccc(CCN2C3CCC2CC(=O)C3)cc1 | 0.6 | 5.8 |  | inactive |  |
| O=C1CC2CCC(C1)N2CCc1ccncc1 | 0 |  |  | inactive |  |
| O=C1CC2CCC(C1)N2CCc1ccc([N+](=O)[O-])cc1 | -0.2 |  |  |  |  |
| CC(Cc1ccc(Cl)cc1)N1C2CCC1CC(=O)C2 (stereo not drawn) | 0.1 |  |  |  |  |
| O=C1CC2CCC(C1)N2Cc1ccc(Cl)cc1 | 0 |  |  |  |  |
| O=C1CC2CCC(C1)N2CCc1ccc(Cl)c(Cl)c1 | 1 | 6 |  | inactive |  |
| Clc1cccc(CN2CCNCC2)c1 |  | 5.5 | 3.1 |  |  |
| O=C1C2CCCC1CN(CCc1ccc(Cl)cc1)C2 | -0.1 |  |  |  |  |
| O=C1CC2CCC(C1)N2CCc1ccc(C(F)(F)F)cc1 | 1.8 | 6.7 |  | inactive |  |
| COc1ccc(CCN2C3CCC2CC(=O)C3)cc1 | 0.3 |  |  |  |  |
| O=C1CC2CCC(C1)N2CCc1ccc(Cl)cc1 | 0.6 | 6 | 3.4 | inactive | inactive |
